Measurements: US12240862B2, “Inhibitors of peptidylarginine deiminases” (Gilead Sciences, Inc., priority 2020, dated 2025)

Molecular target: T1, human PAD4 (Homo sapiens, UniProt Q9UM07)
T1 construct: human PAD4 (NM_012387), A2P663, was PCR amplified; His-SUMO (N, cleaved yes); made in house; host or cells: E. coli BL21(DE3)
Assay: In vitro PAD4 BAEE biochemical assay
Conditions: human PAD4, BAEE substrate; 5 nM PAD4, 2 mM calcium chloride, 3 mM BAEE; geometric mean of multiple experiments
Method in brief: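 Ammonia release from BAEE deimination monitored by o-phthalaldehyde amine coupling (1 h, 25 °C) after EDTA stop. Final conditions: 5 nM tag-free recombinant human PAD4 (E. coli), 2 mM CaCl2, 3 mM BAEE, pH 7.6 MOPS with DTT; 30 min compound preincubation, then 2 h reaction at 25 °C.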

T1 sequence (Q9UM07 2-663): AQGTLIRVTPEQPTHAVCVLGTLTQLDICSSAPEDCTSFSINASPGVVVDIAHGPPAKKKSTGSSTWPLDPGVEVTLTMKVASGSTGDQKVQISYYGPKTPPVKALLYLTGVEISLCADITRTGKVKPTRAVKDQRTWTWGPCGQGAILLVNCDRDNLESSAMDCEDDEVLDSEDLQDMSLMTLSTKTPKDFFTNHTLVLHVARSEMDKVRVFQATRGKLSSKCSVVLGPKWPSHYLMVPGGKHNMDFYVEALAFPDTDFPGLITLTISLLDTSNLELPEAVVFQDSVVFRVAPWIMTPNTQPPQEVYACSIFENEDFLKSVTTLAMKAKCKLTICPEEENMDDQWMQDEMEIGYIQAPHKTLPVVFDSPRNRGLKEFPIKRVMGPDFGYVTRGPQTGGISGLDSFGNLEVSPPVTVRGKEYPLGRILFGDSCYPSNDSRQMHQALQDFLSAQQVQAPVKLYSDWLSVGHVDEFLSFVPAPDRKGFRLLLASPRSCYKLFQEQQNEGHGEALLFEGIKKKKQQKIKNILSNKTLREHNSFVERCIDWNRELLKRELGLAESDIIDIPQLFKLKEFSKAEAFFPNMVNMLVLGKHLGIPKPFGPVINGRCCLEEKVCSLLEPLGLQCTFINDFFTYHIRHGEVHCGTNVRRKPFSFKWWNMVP

| IC50 | SMILES |
| --- | --- |
| 5250 nM | COc1cc(C(=O)N2[C@@H]3CC[C@H]2[C@@H](N)[C@@H](O)C3)cc2nc(-c3cc4ccc(N(C(F)F)S(C)(=O)=O)nc4n3CC3CC3)c(C)n12 [Example 414, ~{N}-[2-[7-[(1~{S}, 2~{R},3~{S},5~{R})-2-amino-3-hydroxy-8-azabicyclo[3.2.1]octane-8-carbonyl]-5-methoxy-3-methylimidazo [1,2-a]pyridin-2-yl]-1-(cyclopropylmethyl)pyrrolo [2,3-b]pyridin-6-yl]-~{N}-(difluoromethyl) methanesulfonamide] |
| 27900 nM | COc1cc(C(=O)N2CC[C@H]3CCNC[C@H]32)cc2nc(-c3cc4ccc(N(C(F)F)S(C)(=O)=O)nc4n3CC3CC3)c(C)n12 [Example 415, ~{N}-[2-[7-[(3~{a}~{R},7~{a}~{S})-2,3,3~{a},4,5,6,7,7~{a}-octahydropyrrolo[2,3-c]pyridine-1-carbonyl]-5-methoxy-3-methylimidazo[1,2-a]pyridin-2-yl]-1-(cyclopropylmethyl)pyrrolo [2,3-b]pyridin-6-yl]-~{N}-(difluoromethyl) methanesulfonamide] |
| 337 nM | COc1cc(C(=O)N2[C@H]3CC[C@@H]2[C@H](N)[C@H](O)C3)cc2nc(-c3cc4ccc(N(C(F)F)S(C)(=O)=O)nc4n3CC3CC3)c(C)n12 [Example 416, ~{N}-[2-[7-[(1~{R},2~{S},3~{R}, 5~{S})-2-amino-3-hydroxy-8-azabicyclo[3.2.1]octane-8-carbonyl]-5-methoxy-3-methylimidazo[1,2-a]pyridin-2-yl]-1-(cyclopropylmethyl)pyrrolo [2,3-b]pyridin-6-yl]-~{N}-(difluoromethyl) methanesulfonamide] |
| 151 nM | COc1cc(C(=O)N2CC[C@@H]3CCNC[C@H]32)cc2nc(-c3cc4ccc(N(C(F)F)S(C)(=O)=O)nc4n3CC3CC3)c(C)n12 [Example 418, ~{N}-[2-[7-[(3~{a}~{S}, 7~{a}~{S})-2,3,3~{a},4,5,6,7,7~{a}-octahydropyrrolo[2,3-c]pyridine-1-carbonyl]-5-methoxy-3-methylimidazo[1,2-a]pyridin-2-yl]-1-(cyclopropylmethyl)pyrrolo [2,3-b]pyridin-6-yl]-~{N}-(difluoromethyl) methanesulfonamide] |
| 1170 nM | COc1cc(C(=O)N2CC[C@@H]3CCN[C@@H]3C2)cc2nc(-c3cc4ccc(N(C(F)F)S(C)(=O)=O)nc4n3CC3CC3)c(C)n12 [Example 419] |
| 60.6 nM | COc1cc(C(=O)N2CC[C@H]3CCN[C@H]3C2)cc2nc(-c3cc4ccc(N(C(F)F)S(C)(=O)=O)nc4n3CC3CC3)c(C)n12 [Example 420, ~{N}-[2-[7-[(3~{a}~{R},7~{a}~{R})-1,2,3,3~{a},4,5,7,7~{a}-octahydropyrrolo[2,3-c]pyridine-6-carbonyl]-5-methoxy-3-methylimidazo [1,2-a]pyridin-2-yl]-1-(cyclopropylmethyl)pyrrolo [2,3-b]pyridin-6-yl]-~{N}-(difluoromethyl) methanesulfonamide] |
| 341 nM | CNc1cc(C(=O)N2CCC[C@@H](N)C2)cc2nc(-c3cc4ccc(N(C(F)F)S(C)(=O)=O)nc4n3CC3CC3)c(C)n12 [Example 421, ~{N}-[2-[7-[(3~{R})-3-aminopiperidine-1-carbonyl]-3-methyl-5-(methylamino)imidazo[1,2-a]pyridin-2-yl]-1-(cyclopropylmethyl)pyrrolo [2,3-b]pyridin-6-yl]-~{N}-(difluoromethyl) methanesulfonamide] |
| 6370 nM | Cc1c(-c2cc3ccc(N(C(F)F)S(C)(=O)=O)nc3n2CC2CC2)nc2cc(C(=O)N3CCC[C@@H](N)C3)cc(N(C)C)n12 [Example 422, ~{N}-[2-[7-[(3~{R})-3-aminopiperidine-1-carbonyl]-5-(dimethylamino)-3-methylimidazo[1,2-a]pyridin-2-yl]-1-(cyclopropylmethyl)pyrrolo [2,3-b]pyridin-6-yl]-~{N}-(difluoromethyl) methanesulfonamide] |
| 1770 nM | Cc1c(-c2cc3ccc(N(C(F)F)S(C)(=O)=O)nc3n2CC2CC2)nc2cc(C(=O)N3CCC[C@@H](N)C3)cc(C(F)F)n12 [Example 423, ~{N}-[2-[7-[(3~{R})-3-aminopiperidine-1-carbonyl]-5-(difluoromethyl)-3-methylimidazo[1,2-a]pyridin-2-yl]-1-(cyclopropylmethyl)pyrrolo [2,3-b]pyridin-6-yl]-~{N}-(difluoromethyl) methanesulfonamide] |
| 18000 nM | Cc1c(-c2cc3ccc(N(C(F)F)S(C)(=O)=O)nc3n2CC2CC2)nc2cc(C(=O)N3CCC[C@@H](N)C3)cc([S+](C)[O-])n12 (stereo partly drawn) [Example 424, ~{N}-[2-[7-[(3~{R})-3-aminopiperidine-1-carbonyl]-3-methyl-5-methylsulfinylimidazo[1,2-a]pyridin-2-yl]-1-(cyclopropylmethyl)pyrrolo [2,3-b]pyridin-6-yl]-~{N}-(difluoromethyl) methanesulfonamide] |
| 125 nM | Cc1cc(C(=O)N2CCC[C@@H](N)C2)cc2nc(-c3cc4ccc(N(C(F)F)S(C)(=O)=O)nc4n3CC3CC3)c(C)n12 [Example 426, ~{N}-[2-[7-[(3~{R})-3-aminopiperidine-1-carbonyl]-3,5-dimethylimidazo [1,2-a]pyridin-2-yl]-1-(cyclopropylmethyl)pyrrolo [2,3-b]pyridin-6-yl]-~{N}-(difluoromethyl) methanesulfonamide] |
| 94.7 nM | CCc1cc(C(=O)N2CCC[C@@H](N)C2)cc2nc(-c3cc4ccc(N(C(F)F)S(C)(=O)=O)nc4n3CC3CC3)c(C)n12 [Example 427, ~{N}-[2-[7-[(3~{R})-3-aminopiperidine-1-carbonyl]-5-ethyl-3-methylimidazo [1,2-a]pyridin-2-yl]-1-(cyclopropylmethyl)pyrrolo [2,3-b]pyridin-6-yl]-~{N}-(difluoromethyl) methanesulfonamide] |
| 1020 nM | Cc1c(-c2cc3ccc(N(C(F)F)S(C)(=O)=O)nc3n2CC2CC2)nc2cc(C(=O)N3CCC[C@@H](N)C3)cc(C3CC3)n12 [Example 428, ~{N}-[2-[7-[(3~{R})-3-aminopiperidine-1-carbonyl]-5-cyclopropyl-3-methylimidazo [1,2-a]pyridin-2-yl]-1-(cyclopropylmethyl)pyrrolo [2,3-b]pyridin-6-yl]-~{N}-(difluoromethyl) methanesulfonamide] |
| 851 nM | COc1cc(C(=O)N2[C@H]3CC[C@@H]2[C@H](N)C3)cc2nc(-c3cc4ccc(N(C(F)F)S(C)(=O)=O)nc4n3CC3CC3)c(CC(C)C)n12 [Example 429, ~{N}-[2-[7-[(1~{R},2~{R}, 4~{S})-2-amino-7-azabicyclo[2.2.1]heptane-7-carbonyl]-5-methoxy-3-(2-methylpropyl)imidazo[1,2-a]pyridin-2-yl]-1-(cyclopropylmethyl)pyrrolo [2,3-b]pyridin-6-yl]-~{N}-(difluoromethyl) methanesulfonamide] |
| 943 nM | COc1cc(C(=O)N2CCC[C@@H](N)C2)cc2nc(-c3cc4ccc(N(C(F)F)S(C)(=O)=O)nc4n3CC3CC3)c(CC(C)C)n12 [Example 430, ~{N}-[2-[7-[(3~{R})-3-aminopiperidine-1-carbonyl]-5-methoxy-3-(2-methylpropyl)imidazo [1,2-a]pyridin-2-yl]-1-(cyclopropylmethyl)pyrrolo [2,3-b]pyridin-6-yl]-~{N}-(difluoromethyl) methanesulfonamide] |
| 2030 nM | CNC(=O)C1CC1c1c(-c2cc3ccc(N(C(F)F)S(C)(=O)=O)nc3n2CC2CC2)nc2cc(C(=O)N3CCC[C@@H](N)C3)ccn12 (stereo partly drawn) [Example 431, 2-[7-[(3~{R})-3-aminopiperidine-1-carbonyl]-2-[1-(cyclopropylmethyl)-6-[difluoromethyl (methylsulfonyl)amino]pyrrolo[2,3-b]pyridin-2-yl]imidazo[1,2-a]pyridin-3-yl]-~{N}-methylcyclopropane-1-carboxamide] |
| 2490 nM | CCOC(=O)C1CC1c1c(-c2cc3ccc(N(C(F)F)S(C)(=O)=O)nc3n2CC2CC2)nc2cc(C(=O)N3CCC[C@@H](N)C3)ccn12 (stereo partly drawn) [Example 432, ethyl 2-[7-[(3~{R})-3-aminopiperidine-1-carbonyl]-2-[1-(cyclopropylmethyl)-6-[difluoromethyl (methylsulfonyl)amino]pyrrolo[2,3-b]pyridin-2-yl]imidazo[1,2-a]pyridin-3-yl]cyclopropane-1-carboxylate] |
| 7040 nM | CC(C)c1c(-c2cc3ccc(N(C(F)F)S(C)(=O)=O)nc3n2CC2CC2)nc2cc(C(=O)N3CCC[C@@H](N)C3)ccn12 [Example 433, ~{N}-[2-[7-[(3~{R})-3-aminopiperidine-1-carbonyl]-3-propan-2-ylimidazo[1,2-a]pyridin-2-yl]-1-(cyclopropylmethyl)pyrrolo [2,3-b]pyridin-6-yl]-~{N}-(difluoromethyl) methanesulfonamide] |
| 3410 nM | CC(C)c1c(-c2cc3ccc(N(C(F)F)S(C)(=O)=O)nc3n2CC2CC2)nc2cc(C(=O)N3[C@@H]4CC[C@@H](N)[C@H]3CC4)ccn12 [Example 434] |
| 11300 nM | CC1(c2c(-c3cc4ccc(N(C(F)F)S(C)(=O)=O)nc4n3CC3CC3)nc3cc(C(=O)N4CCC[C@@H](N)C4)ccn23)CC1 [Example 435, ~{N}-[2-[7-[(3~{R})-3-aminopiperidine-1-carbonyl]-3-(1-methylcyclopropyl)imidazo[1,2-a]pyridin-2-yl]-1-(cyclopropylmethyl)pyrrolo[2,3-b]pyridin-6-yl]-~{N}-(difluoromethyl) methanesulfonamide] |
| 202 nM | CS(=O)(=O)N(c1ccc2cc(-c3nc4cc(C(=O)N5[C@@H]6CC[C@@H](N)[C@H]5CC6)ccn4c3CC3CC3)n(CC3CC3)c2n1)C(F)F [Example 436, ~{N}-[2-[7-[(1~{R},2~{R}, 5~{R})-2-amino-8-azabicyclo[3.2.1]octane-8-carbonyl]-3-(cyclopropylmethyl)imidazo [1,2-a]pyridin-2-yl]-1-(cyclopropylmethyl)pyrrolo [2,3-b]pyridin-6-yl]-~{N}-(difluoromethyl) methanesulfonamide] |
